Measurements published in patent US6194387A, “6-O-aklyl erythromycin B oxime” (Abbott Laboratories, priority 1999, dated 2001).
≈ marks a conversion by molar mass, not a printed value. Like-named read-outs stand apart in the source and are kept apart here.

Assays:
EN[…] [1] = assay: in vitro antibacterial activity, agar dilution MIC; type: cell-based, Enterobacter aerogenes; details: Klebsiella aerogenes, ATCC13048
Description: (§1) 6-O-Methyl-9-oxime erythromycin B prepared in accordance with Examples 1 and 2 was assayed in vitro for anitbacterial activity as follows: Twelve petri dishes containing successive aqueous dilutions of the test compound mixed with 10 mL of sterilized Brain Heart Infusion (BHI) agar (Difco 0418-01-5) were prepared. Each plate was inoculated with 1:100 (or 1:10 for slow-growing strains, such as Micrococcus and Streptococcus) dilutions of up to 32 different micoorganisims, using a Steers replicatore block. The inoculated plates were incubated at 35-37° C. for 20 to 24 hours. In addition, a control plate, using BHI agar containing no test compound, was prepared and incubated at the beginning and end of each test.
(§2) An additional plate containing a compound having known susceptibility patterns for the organisms being tested and belonging to the same antibiotic class as the test compound was also prepared and incubated as further control, as well as to provide test-to-test comparability. Erythromycin A was used for this purpose.
(§3) After incubation, each disk was read. The minimum inhibitory concentration (MIC) was defined as the lowest concentration of drug yielding no growth, a slight haze, or sparsely isolated colonies on the inoculum spot as compared to the growth control.

ESCHERICHIA COLI = assay: microbe, parasite or virus in culture; type: cell-based
Description: as §1, §2, §3

micoorganisims = assay: in vitro antibacterial activity, overall conclusion; type: cell-based
Description: as §1, §2, §3

[2] = system: ACINETOBACTER CALCOACETICUS; assay: in vitro antibacterial activity, agar dilution MIC; type: cell-based; details: Table 2, CMX 669, read-out: MIC
Description: as §1, §2, §3

[3] = system: STAPHYLOCOCCUS PNEUMONIAE; assay: in vitro antibacterial activity, agar dilution MIC; type: cell-based
Description: as §1, §2, §3

HAEMOPHILUS INFLUENZAE = assay: in vitro antibacterial activity, agar dilution MIC; type: cell-based
Description: as §1, §2, §3

STAPHYLOCOCCUS BOVIS = assay: in vitro antibacterial activity, agar dilution MIC; type: cell-based; details: Table 2, A-5169, read-out: MIC
Description: as §1, §2, §3

M[…] [4] = assay: in vitro antibacterial activity, agar dilution MIC; type: cell-based; details: Micrococcus luteus, ATCC4698
Description: as §1, §2, §3

[5] = system: STAPHYLOCOCCUS EPIDERMIDIS; assay: in vitro antibacterial activity, agar dilution MIC; type: cell-based; details: Table 2, 3519, read-out: MIC
Description: as §1, §2, §3

MYCOBACTERIIUM SMEGMATIS = assay: in vitro antibacterial activity, agar dilution MIC; type: cell-based; details: Table 2; ATCC 114; read-out: MIC
Description: as §1, §2, §3

STAPHYLOCOCCUS AUREUS = assay: in vitro antibacterial activity, agar dilution MIC; type: cell-based
Description: as §1, §2, §3

EN[…] [6] = assay: in vitro antibacterial activity, agar dilution MIC; type: cell-based; details: Enterococcus faecium, ATCC8043
Description: as §1, §2, §3

PROVIDENCIA STUART II = assay: in vitro antibacterial activity, agar dilution MIC; type: cell-based; details: Table 2, CMX 640, read-out: MIC
Description: as §1, §2, §3

PSEUDOMONAS CEPACIA = assay: in vitro antibacterial activity, agar dilution MIC; type: cell-based; details: Burkholderia cepacia; Table 2; 2961; read-out: MIC
Description: as §1, §2, §3

STAPHYLOCOCCUS PYOGENES = assay: in vitro antibacterial activity, agar dilution MIC; type: cell-based
Description: as §1, §2, §3

KLEBSIELLA PNEUMONIAE = assay: in vitro antibacterial activity, agar dilution MIC; type: cell-based; details: ATCC8045, Table 2, ATCC 8045, read-out: MIC
Description: as §1, §2, §3

PSEUDOMONAS AERUGINOSA = assay: in vitro antibacterial activity, agar dilution MIC; type: cell-based
Description: as §1, §2, §3

NOCARDIA ASTEROIDES = assay: in vitro antibacterial activity, agar dilution MIC; type: cell-based; details: ATCC9970, Table 2, ATCC 9970, read-out: MIC
Description: as §1, §2, §3

CANDIDA ALBICANS = assay: in vitro antimicrobial activity, agar dilution MIC; type: cell-based; details: Table 2, CCH 442, read-out: MIC
Description: as §1, §2, §3

M[…] [7] = assay: in vitro antibacterial activity, agar dilution MIC; type: cell-based, Micrococcus pyogenes; details: Staphylococcus aureus, ATCC9341
Description: as §1, §2, §3

`CC[C@H]1OC(=O)[C@H](C)[C@@H](O[C@H]2C[C@@](C)(OC)[C@@H](O)[C@H](C)O2)[C@H](C)[C@@H](O[C@@H]2O[C@H](C)C[C@H](N(C)C)[C@H]2O)[C@](C)(OC)C[C@@H](C)C(=NO)[C@H](C)[C@@H](O)[C@H]1C` [6-O-Methyl-9-oxime erythromycin B] gave an MIC (EN[…] [1]) of over 100 µg/mL, an MIC (ESCHERICHIA COLI; Table 2, DC-2) of over 100 µg/mL and an MIC (ESCHERICHIA COLI; Table 2, H560) of 100 µg/mL (≈ 134 µM). The MIC (ESCHERICHIA COLI; Table 2, JUHL) was 50 µg/mL (≈ 66.9 µM), the MIC (ESCHERICHIA COLI; Table 2, KNK 437) was 100 µg/mL (≈ 134 µM) and the MIC (ESCHERICHIA COLI; Table 2, SS) was 0.78 µg/mL (≈ 1.04 µM). The “antibacterial activity (conclusion from Tables 2 and 3)” value (micoorganisims) was “effective antibacterial agent”, the MIC [2] was 50 µg/mL (≈ 66.9 µM) and the MIC ([3]; Table 3, 5649, read-out: MIC) was 16 µg/mL (≈ 21.4 µM). For the same molecule, the MIC ([3]; Table 3, 5654, read-out: MIC) was 16 µg/mL (≈ 21.4 µM), the MIC ([3]; Table 3, 5728, read-out: MIC) was over 128 µg/mL and the MIC ([3]; Table 3, 5737, read-out: MIC) was over 128 µg/mL. The MIC ([3]; Table 3, 5979, read-out: MIC) was over 128 µg/mL, the MIC ([3]; Table 3, GYR 1171, read-out: MIC) was 0.03 µg/mL (≈ 0.0402 µM) and the MIC (HAEMOPHILUS INFLUENZAE; ATCC10211, Table 3, ATCC 10211, read-out: MIC) was 16 µg/mL (≈ 21.4 µM). It also gave an MIC (HAEMOPHILUS INFLUENZAE; ATCC19418, Table 3, ATCC 19418, read-out: MIC) of 32 µg/mL (≈ 42.8 µM), an MIC (HAEMOPHILUS INFLUENZAE; ATCC43095, Table 3, ATCC 43095, read-out: MIC) of 8 µg/mL (≈ 10.7 µM) and an MIC (HAEMOPHILUS INFLUENZAE; Table 3, CMX 503B, read-out: MIC) of 16 µg/mL (≈ 21.4 µM). For the same molecule, the MIC (HAEMOPHILUS INFLUENZAE; Table 3, CMX 504, read-out: MIC) was 16 µg/mL (≈ 21.4 µM), the MIC (HAEMOPHILUS INFLUENZAE; Table 3, CMX 519A, read-out: MIC) was 16 µg/mL (≈ 21.4 µM) and the MIC (HAEMOPHILUS INFLUENZAE; Table 3, CMX 566A, read-out: MIC) was 16 µg/mL (≈ 21.4 µM). For the same molecule, the MIC (HAEMOPHILUS INFLUENZAE; Table 3, CMX 588A, read-out: MIC) was 16 µg/mL (≈ 21.4 µM), the MIC (HAEMOPHILUS INFLUENZAE; Table 3, CMX 632A, read-out: MIC) was 8 µg/mL (≈ 10.7 µM) and the MIC (HAEMOPHILUS INFLUENZAE; Table 3, CMX 747C, read-out: MIC) was 16 µg/mL (≈ 21.4 µM). For the same molecule, the MIC (HAEMOPHILUS INFLUENZAE; Table 3, CMX 751, read-out: MIC) was 32 µg/mL (≈ 42.8 µM), the MIC (HAEMOPHILUS INFLUENZAE; Table 3, GYR 1177, read-out: MIC) was 1 µg/mL (≈ 1.34 µM) and the MIC (HAEMOPHILUS INFLUENZAE; Table 3, GYR 1435, read-out: MIC) was 16 µg/mL (≈ 21.4 µM). The MIC (HAEMOPHILUS INFLUENZAE; Table 3, SOL AMP R, read-out: MIC) was 16 µg/mL (≈ 21.4 µM), the MIC (HAEMOPHILUS INFLUENZAE; Table 3, SPK AMP R, read-out: MIC) was 16 µg/mL (≈ 21.4 µM) and the MIC (STAPHYLOCOCCUS BOVIS) was 0.05 µg/mL (≈ 0.0669 µM). It also gave an MIC (M[…] [4]) of 0.78 µg/mL (≈ 1.04 µM), an MIC [5] of 0.39 µg/mL (≈ 0.522 µM) and an MIC (MYCOBACTERIIUM SMEGMATIS) of 0.39 µg/mL (≈ 0.522 µM). For the same molecule, the MIC (STAPHYLOCOCCUS AUREUS; ATCC6538P, Table 2, ATCC 6538P, read-out: MIC) was 0.39 µg/mL (≈ 0.522 µM), the MIC (STAPHYLOCOCCUS AUREUS; Table 2, A5177, read-out: MIC) was 6.2 µg/mL (≈ 8.3 µM) and the MIC (STAPHYLOCOCCUS AUREUS; Table 2, A-5278, read-out: MIC) was over 100 µg/mL. For the same molecule, the MIC (STAPHYLOCOCCUS AUREUS; Table 2, CMX 553, read-out: MIC) was 0.78 µg/mL (≈ 1.04 µM), the MIC (STAPHYLOCOCCUS AUREUS; Table 2, CMX 642A, read-out: MIC) was 0.78 µg/mL (≈ 1.04 µM) and the MIC (STAPHYLOCOCCUS AUREUS; Table 2, NCTC10649M, read-out: MIC) was 0.39 µg/mL (≈ 0.522 µM). It also gave an MIC (EN[…] [6]) of 0.1 µg/mL (≈ 0.134 µM), an MIC (PROVIDENCIA STUART II) of over 100 µg/mL and an MIC (PSEUDOMONAS CEPACIA) of over 100 µg/mL. For the same molecule, the MIC (STAPHYLOCOCCUS PYOGENES; Table 2, 930) was over 100 µg/mL, the MIC (STAPHYLOCOCCUS PYOGENES; Table 2, EES61, read-out: MIC) was 0.02 µg/mL (≈ 0.0268 µM) and the MIC (STAPHYLOCOCCUS PYOGENES; Table 2, PIU 2548, read-out: MIC) was 6.2 µg/mL (≈ 8.3 µM). For the same molecule, the MIC (STAPHYLOCOCCUS PYOGENES; Table 3, 930, read-out: MIC) was over 128 µg/mL, the MIC (STAPHYLOCOCCUS PYOGENES; Table 3, EES61, read-out: MIC) was 0.03 µg/mL (≈ 0.0402 µM) and the MIC (STAPHYLOCOCCUS PYOGENES; Table 3, PIU 2548, read-out: MIC) was 16 µg/mL (≈ 21.4 µM). For the same molecule, the MIC (KLEBSIELLA PNEUMONIAE) was over 100 µg/mL, the MIC (PSEUDOMONAS AERUGINOSA; Table 2, 5007, read-out: MIC) was over 100 µg/mL and the MIC (PSEUDOMONAS AERUGINOSA; Table 2, DPHD-2862, read-out: MIC) was over 100 µg/mL. The MIC (PSEUDOMONAS AERUGINOSA; Table 2, DPHD-5263, read-out: MIC) was over 100 µg/mL, the MIC (PSEUDOMONAS AERUGINOSA; Table 2, K799/61, read-out: MIC) was 1.56 µg/mL (≈ 2.09 µM) and the MIC (NOCARDIA ASTEROIDES) was 0.1 µg/mL (≈ 0.134 µM). The MIC (CANDIDA ALBICANS) was over 100 µg/mL and the MIC (M[…] [7]) was 0.05 µg/mL (≈ 0.0669 µM).
